Laboratory results published in patent US6620837B1, “Antithrombotic agents” (Eli Lilly and Company, priority 1999, dated 2003).
Counter-ions that a name gives are not always drawn.

Experiments:
[1] = Volume of distribution (VD) after oral dosing, pharmacokinetic model; assay type: in vivo, dog; conditions: VD=Clearance/K; Clearance=Dose/AUC following oral dosing; compounds of the invention
From the text: Many of the antithrombotic compounds disclosed in the prior art are lipophilic and, therefore, undergo high volumes of distribution from the plasma component and into the tissues. Since thrombin resides in the plasma, this tissue distribution is not preferred. […] Data in Table 1 below confirms that the compounds of the present invention have lower volumes of distribution and, therefore, better pharmacokinetic properties than their corresponding compounds of formula I in which R^d is hydrogen.
The Volume of Distribution (VD) was calculated according to the standard equation:
where Clearance=Dose (ug)/AUC (ug/ml) where AUC is the amount of drug present in plasma following oral dosing and is measured as the area under a curve of drug concentration versus time. K(h^−1) is the elimination rate constant.
Test compound is formulated immediately prior to dosing by dissolving in sterile 0.9 percent saline to a 5 mg/mL preparation. Dogs are given a single 2 mg/kg dose of test compound by oral gavage. Blood samples (4.5 mL) are taken from the cephalic vein at 0.25, 0.5, 0.75, 1, 2, 3, 4 and 6 hours after dosing. Samples are collected in citrated Vacutainer tubes and kept on ice prior to reduction to plasma by centrifugation. Plasma samples are analyzed by HPLC MS. Plasma concentration of test compound is recorded and used to calculate the pharmacokinetic parameters: elimination rate constant, Ke; total clearance, Clt; volume of distribution, VD; time of maximum plasma test compound concentration, Tmax; maximum concentration of test compound of Tmax, Cmax; plasma half-life, t0.5; and area under the curve, A.U.C.; fraction of test compound absorbed, F.

Compound	VD [1] [L/kg]	melting point
NC(=O)CCCOc1cc(-c2sc3ccccc3c2Cc2ccc(OCCN3CCCC3=O)cc2)ccc1OCCN1CCCC1 [Example 8, 2-[3-(4-Amino-4-oxobutoxy)-4-[2-(1-pyrrolidinyl)ethoxy]phenyl]-3-[4-[2-(2-oxopyrrolidin-1-yl)ethoxy]-benzyl]benzo[b]thiophene Oxalate]	13.53	
O=C([O-])c1cc(-c2sc3ccccc3c2Cc2ccc(OCCN3CCCC3)cc2)ccc1OCCN1CCCC1.[Na+] [Example 1, 2-[2-(1-Pyrrolidinyl)ethoxy]-5-[3-[4-[2-(1-pyrrolidinyl)ethoxy]benzyl]benzo[b]thiophen-2-yl]benzoic Acid Sodium Salt]	1.27	253 to 255 °C (dec.)
COC(=O)CCCOc1ccc(-c2sc3ccccc3c2Cc2ccc(OCCN3CCCC3)cc2)cc1C(N)=O [Example 4, 2-(3-Carbomethoxypropoxy)-5-[3-[4-[2-(1-pyrrolidinyl)ethoxy]benzyl]benzo[b]thiophen-2-yl]benzamide Oxalate Salt]	3.36	
O=C([O-])CCCOc1cc(-c2sc3ccccc3c2C(=O)c2ccc(OCCN3CCCC3=O)cc2)ccc1OCCN1CCCC1.[Li+] [Example 11]	5.13	
O=C([O-])CCCOc1ccc(-c2sc3ccccc3c2Cc2ccc(OCCN3CCCC3)cc2)cc1C(=O)[O-].[Na+].[Na+] [Example 2, 2-(3-Carboxypropoxy)-5-[3-[4-[2-(1-pyrrolidinyl)ethoxy]benzyl]benzo[b]thiophen-2-yl]benzoic Acid Disodium Salt]	0.46	> 250 °C
